According to ChEMBL document CHEMBL3988442, “University of Dundee, Small-Polar-MMV Screening Library” (2021):

What was measured:
[1] = microbe, parasite or virus in culture; settings: Mycobacterium tuberculosis, 96 h, read-out: pIC50 (converted)
[2] = microbe, parasite or virus in culture; settings: Mycobacterium tuberculosis, 72 h, read-out: pIC50 (converted)

SMILES	IC50 [1] [µM]	IC50 [2] [µM]
CCOC(=O)CNC(=O)c1ccc2c(c1)OCCO2	> 501	> 501
COc1cccc2c1CCC2N (stereo not drawn)	> 501	223
CC1=CC(=O)N(Cc2ccccc2)C1=O	81.5	49.8
NC(CN1CCOCC1)c1ccccc1 (stereo not drawn)	> 501	> 501
Cc1cccc2[nH]cc(CCN)c12	229	124
CNCC(O)CN1CCc2ccccc2CC1 (stereo not drawn)	289	254
CCOCCC(=O)N(C)Cc1cc(C(C)C)no1	372	169
NC[C@]12C[C@H]1CCN2Cc1ccccc1	184	> 501
Cc1ccc(C(=O)N2CCN(c3nccs3)CC2)o1	183	157
COCCN(C)S(=O)(=O)c1cc(F)c(C)cc1F	> 501	465
COc1ccc(Br)c(S(=O)(=O)N(C)C)c1	> 501	358
OCCOCCSc1n[nH]c(-c2cc(F)cc(F)c2)n1	> 501	> 501
COCCNC(=O)COc1ccc2c(c1)OCO2	62.9	128
COc1cccc(CNCCn2cccn2)c1OC	> 501	196
CC(CNC(=O)N[C@@H](C)C(=O)N(C)C)Cc1cccs1 (stereo partly drawn)	277	247
Cc1ccc(C(=O)Nc2cnn(C)c2)cn1	> 501	> 501
CCC(C)c1cc(C(=O)Nc2ncccc2O)on1 (stereo not drawn)	268	178
COC(=O)c1csc(NC(=O)CCn2cccn2)c1	> 501	303
Cc1csc(NC(=O)CNC(=O)c2cccs2)n1	> 501	185
COc1ccc2c(c1)OCC(CNC(=O)CN(C)C)C2 (stereo not drawn)	> 501	> 501
CN(Cc1ccco1)C(=O)c1cc(C2CC2)[nH]n1	59.3	107
O=C(CSc1nnnn1Cc1cccs1)NC1CC1	216	492

SMILES	IC50 [1] [µM]	IC50 [2] [µM]
CC(Nc1cccc(OC(F)(F)F)c1)C(=O)NC(N)=O (stereo not drawn)	> 501	184
OCCOCCN1CCC(=Cc2ccccc2)CC1	242	203
COc1cc(OC)cc(N2CCCNCC2)c1	150	112
Cc1ncsc1C(=O)NC1CCCCNC1=O (stereo not drawn)	> 501	> 501
CN(C1CCCCC1)S(=O)(=O)NC1CCCCNC1=O (stereo not drawn)	> 501	> 501
COc1ccccc1OC(C)CN (stereo not drawn)	61.1	20.2
NS(=O)(=O)c1cccc2c1CCCN2Cc1nccs1	> 501	> 501
COc1cccc(F)c1C(C)NC(=O)c1nccn1C (stereo not drawn)	252	322
CS(=O)(=O)Cc1ccccc1NCc1ccsc1	> 501	220
CC[C@@H](CO)NC(=O)NCC(C)c1ccsc1 (stereo partly drawn)	495	483
C[S+]([O-])c1nncn1CCCOc1cccc(Cl)c1 (stereo not drawn)	> 501	341
CC(=O)Nc1ccc(C(=O)N(C)Cc2cccs2)cc1	272	307
FC(F)Oc1cccc(N2CCNCC2)c1	347	147
NCc1nc(-c2ccc(F)cc2)c[nH]1	> 501	222
OC1CCN(Cc2cc(Cl)c3c(c2)OCCO3)CC1	> 501	> 501
CCCn1nc(C(=O)NCc2csc(Br)c2)ccc1=O	154	222
COc1ccc(NC(=O)COc2ccccc2F)cn1	> 501	213
CC(C)C(NS(=O)(=O)N1CCOCC1)c1ccccc1 (stereo not drawn)	> 501	> 501
CC(C)CC1CCN(S(N)(=O)=O)C1 (stereo not drawn)	> 501	> 501
CCNC(=O)NCC(C)Oc1cccc(OC)c1 (stereo not drawn)	301	254
CCCS(=O)(=O)NCCOc1ccc(C#N)cc1	291	220
NCc1nc(C(F)F)no1	> 501	289

SMILES	IC50 [1] [µM]	IC50 [2] [µM]
Cn1ccc(C(=O)NCc2csc(Br)c2)cc1=O	> 501	> 501
CCNC(=O)NC(=O)CN(C)Cc1ccccc1	134	171
CCCS(=O)(=O)NCC(O)Cc1ccccc1 (stereo not drawn)	197	136
CNS(=O)(=O)CC1CCCN1c1ncc(Br)cn1 (stereo not drawn)	> 501	289
CCC1CN(C)c2ccccc2CN1CCC(=O)NC (stereo not drawn)	> 501	> 501
CN(Cc1ccsc1)C(=O)CNC(=O)c1ccc(Br)o1	164	138
CCCc1ccc(S(=O)(=O)N2CCNCC2)cc1	> 501	299
CN(CCC(O)c1ccccc1)C(=O)c1cc(Cl)c[nH]1 (stereo not drawn)	485	237
Cc1ccc(C(N)CN2CCOCC2)cc1 (stereo not drawn)	> 501	448
CCC(C)(C)NC(=O)c1nn(-c2ccccc2)nc1C	298	199
CCNc1ncc(C(=O)N(C)Cc2ccsc2)cn1	> 501	> 501
Cn1ccnc1N1CCN(c2ccc(C#N)cn2)CC1	> 501	> 501
Cc1cc(S(=O)(=O)NC2CCS(=O)(=O)C2)c(C)s1 (stereo not drawn)	310	97.4
O=C(CCC(=O)c1ccc(F)cc1)NCc1ccco1	> 501	219
NC1(c2nc(C3CC3)cc(=O)[nH]2)CCCC1	> 501	304
CN(C)C(=O)CCOC(=O)c1cccc(Cl)c1	> 501	227
CS(=O)(=O)CCN1CCC(Oc2ccc(F)cc2)CC1	280	221
O=C(NC1CCCc2occc21)c1cccnc1 (stereo not drawn)	79.9	57.8
Nc1nc(-c2c(F)cccc2F)co1	> 501	> 501
CCNC(=O)c1cc2ccc(OC)cc2[nH]1	> 501	283
CC(C)C1CN(C(=O)CCc2ccccn2)CCS1 (stereo not drawn)	95.5	79.8
Cc1ccncc1NC1CS(=O)(=O)c2ccccc21 (stereo not drawn)	43.2	27.1

SMILES	IC50 [1] [µM]	IC50 [2] [µM]
O=C(NCCOc1ncccc1Cl)c1ccsc1	145	470
O=C(c1cc(Cl)c[nH]1)N1CCOC(c2cccs2)C1 (stereo not drawn)	> 501	50.5
CCc1ccccc1CN1C(=O)CCC1=O	> 501	> 501
Cc1ccc2oc(N3CCNCC3)nc2c1	> 501	190
CC(CNC(=O)c1ccc(Cl)cn1)Cn1ccnc1 (stereo not drawn)	176	159
CSc1cccc(N(C)C(=O)C(N)c2ccccc2)c1 (stereo not drawn)	> 501	233
CS(=O)(=O)N1CCC(Cc2ccccc2)C1 (stereo not drawn)	467	482
CC(C(=O)NCc1cccs1)S(=O)(=O)C1CCCC1 (stereo not drawn)	> 501	164
COc1ccc(CNC(=O)CNC2CCCSC2)cc1 (stereo not drawn)	37.4	> 501
CC(C)NC(=O)NC(C)c1ccccc1 (stereo not drawn)	> 501	> 501
Nc1nnc(SCC(=O)NCCc2cccc(Cl)c2)s1	> 501	287
CC1Cc2ccccc2N(C(=O)c2csnn2)C1 (stereo not drawn)	> 501	> 501
COCCC(C)Nc1c[nH]nc1-c1ccccn1 (stereo not drawn)	> 501	201
CC(C)Nc1cc(Cl)ccc1OCCS(C)(=O)=O	222	191
Cn1cc(Br)cc1C(=O)NCCCNc1ncccn1	> 501	292
O[C@@H]1CNC[C@H](O)C1	> 501	> 501
CCCOc1ccc(NS(=O)(=O)N(C)C)cc1Cl	> 501	196
COc1ccc(CCCC(=O)N2CCC(CN)C2)cc1 (stereo not drawn)	> 501	230
CC(Oc1ccc(Cl)cc1)C(=O)N(C)C (stereo not drawn)	> 501	> 501
CN(C)C(CN)c1ccc(F)cc1 (stereo not drawn)	> 501	244
Cn1cc(NC(=O)C2=Cc3ccccc3OC2)cn1	> 501	> 501
Cc1ccc(-n2nnnc2NC2CC2)cc1	> 501	263

SMILES	IC50 [1] [µM]	IC50 [2] [µM]
CSc1cc(NC(=O)NCCc2ccccn2)ccn1	438	411
Nc1cc(-c2ccc(I)cc2)nn1CCO	> 501	> 501
CCc1noc(Cn2cnc3ccccc3c2=O)n1	> 501	> 501
CC(C)NC(=O)NCC1(N2CCOCC2)CCSC1 (stereo not drawn)	> 501	> 501
CN(C)C(=O)c1csc2c1CCCC2	186	271
Cc1c[nH]c(C(=O)NC2COc3ccccc3C2)n1 (stereo not drawn)	> 501	> 501
CC(O)CN1C(=O)C=CC1=O (stereo not drawn)	286	135
CCCNC(=O)c1ccc2c(c1)NC(=O)C(C)S2 (stereo not drawn)	> 501	406
OCCN1CCN(c2nc(-c3ccccc3)no2)CC1	> 501	83.7
O=C(NCc1ccc2c(c1)OCO2)Nc1nccs1	> 501	> 501
Cc1cc(NC(=O)Cc2ccc3c(c2)OCCO3)no1	> 501	271
Cc1ncsc1C(=O)NC(C)C(C)C (stereo not drawn)	> 501	> 501
NC1CCN(Cc2ccccc2F)CC1	> 501	> 501
CSCCOC(=O)c1ccn(C(C)C)n1	248	241
CN(Cc1cccc(C(N)=O)c1)C(=O)c1occc1Br	> 501	> 501
C=C(C)COCCNC(=O)c1c(O)cccc1F	> 501	> 501
CC(NC(=O)CSc1nnnn1C1CC1)c1cccs1 (stereo not drawn)	> 501	433
CC(C(N)=O)N1CCC(=Cc2ccccc2)CC1 (stereo not drawn)	364	290
NC(=O)CN1CCC(COCc2ccccc2)C1 (stereo not drawn)	292	268
O=S(=O)(CCN1CCCC(O)C1)c1ccc(Br)cc1 (stereo not drawn)	174	359
CC(C)NC(=O)CSc1nc(C=Cc2cccs2)n[nH]1	103	122
